The values below come from ChEMBL document CHEMBL4392859, “Xylo-C-nucleosides with a pyrrolo[2,1-f][1,2,4]triazin-4-amine heterocyclic base: Synthesis and antiproliferative properties” (Bioorg Med Chem Lett, 2019).

Common to all, as to type: functional, cell-based
The nature of assay [1]: Antiproliferative activity against human HAP1 cells.
A short description of assay [2]: Antiproliferative activity against human DND41 cells.
The next assay deals with CAPAN-1. Nature of the assay: Antiproliferative activity against human Capan1 cells.
The next assay relates to HCT-116. Nature of the assay: Antiproliferative activity against human HCT116 cells.
For the next assay, the system named is NCI-H460. Nature of the assay: Antiproliferative activity against human NCI-H460 cells.
The subject of another assay is Z-138. Nature of the assay: Antiproliferative activity against human Z138 cells.
The next assay deals with K562. Nature of the assay: Antiproliferative activity against human K562 cells.
Another assay relates to HL-60. Nature of the assay: Antiproliferative activity against human HL60 cells.
Where [3] appears, read: Homo sapiens, HAP1, read-out: IC50.
Where [4] appears, read: Homo sapiens, DND41, read-out: IC50.
The mark [5] stands for this setting: Homo sapiens, CAPAN-1, read-out: IC50.
Setting [6] is: Homo sapiens, HCT-116, read-out: IC50.
Setting [7] is: Homo sapiens, NCI-H460, read-out: IC50.
Setting [8] is: Homo sapiens, Z-138, read-out: IC50.
Where [9] appears, read: Homo sapiens, K562, read-out: IC50.
Setting [10] is: Homo sapiens, HL-60, read-out: IC50.

As a reminder, the IC50 is the point on the concentration scale where inhibition reaches its midpoint. Take `N#C[C@@]1(c2ccc3c(N)ncnn23)O[C@H](CO)[C@H](O)[C@H]1O`: the IC50 result (in assay [1]; in assay [2]; in the assay on CAPAN-1 (capan-1); with HCT-116 (hct-116); in the assay on NCI-H460 (nci-h460); with Z-138 (z-138)) was “Not Active” throughout. Further, the 50% inhibitory concentration (IC50) result in the assay on K562 (k562) and with HL-60 (hl-60) was “Not Active” each time.
`Nc1ncnn2c([C@@H]3O[C@H](CO)[C@H](O)[C@H]3O)ccc12`: the IC50 was 9300 nM in assay [1] (setting [3]); 2800 nM in assay [2] (setting [4]); 2700 nM in the assay on CAPAN-1 (setting [5]); 8400 nM in the assay on HCT-116 (setting [6]); 2000 nM in the assay on NCI-H460 (setting [7]); 4000 nM in the assay on Z-138 (setting [8]). The results for the IC50 in the assay with K562 (setting [9]) and with HL-60 (setting [10]) were 4300 nM and 1900 nM, respectively.
Consider `CC(=O)O[C@@]12CO[C@@H]1C[C@H](O)[C@@]1(C)C(=O)[C@H](O)C3=C(C)[C@@H](OC(=O)[C@H](O)[C@@H](NC(=O)OC(C)(C)C)c4ccccc4)C[C@@](O)([C@@H](OC(=O)c4ccccc4)[C@H]21)C3(C)C` [DOCETAXEL ANHYDROUS], for which the IC50 in assay [1] (setting [3]) was found to be 18 nM; in assay [2] (setting [4]) it was 14 nM; in the assay with CAPAN-1 (setting [5]) it was 19 nM; with HCT-116 (setting [6]), 4 nM; in the assay on NCI-H460 (setting [7]), 7 nM; in the assay with Z-138 (setting [8]) it was 9 nM. Further, the IC50 was determined as 16 nM with K562 (setting [9]) and 47 nM in the assay on HL-60 (setting [10]).
In the case of `CN[C@@H]1C[C@H]2O[C@@](C)([C@@H]1OC)n1c3ccccc3c3c4c(c5c6ccccc6n2c5c31)C(=O)NC4` [STAUROSPORINE], the half-inhibitory concentration (IC50) in assay [2] (setting [4]) worked out at 23 nM; in the assay with CAPAN-1 (setting [5]), 48 nM; in the assay on HCT-116 (setting [6]), 37 nM; with Z-138 (setting [8]), 18 nM; in the assay with K562 (setting [9]), 83 nM; in the assay with HL-60 (setting [10]), 19 nM.
